Patent US6919464B1, “Synthetic derivatives of 21-butenyl and related spinosyns” (Dow AgroSciences LLC, priority 2001, dated 2005)

Key:
Type in all cases: in vivo
[1] = test system: Heliothis virescens; assay: Tobacco Budworm (Heliothis virescens) feeding assay, cotton leaf-dip; conditions: second instar larvae
From the text: To compare insecticidal activities of compounds of the invention against second instar larval Heliothis virescens leaf-dip bioassay was used. Cotton cotyledon leaves were dipped in a test solution made up of the compound dissolved in acetone: Millipore water (2:1) at rates of 400 ppm to 1.56 ppm. Each cotyledon was placed individually on top of a moistened (distilled water) cotton ball in the bottom of a 1 oz plastic cup and allowed to dry (one hour). After drying, a single laboratory-reared second instar Heliothis virescens larva (mean weight 15 mg.) was placed on the treated leaf and the cup sealed with a lid, and held at 27° C. for four days. Percent mortality was determined at the end of the holding period.

[2] = test system: Aphis gossypii; assay: Cotton Aphid (Aphis gossypii) assay, spray on squash seedlings; conditions: rate 50 ppm, relative to plants sprayed with solvent only; for mortality at 50 ppm: Aphis gossypii, 72 h
Description: Insecticidal activities of the compounds of the invention were also evaluated against cotton aphids (Aphis gossyppi) as follows. Summer crookneck squash seedlings at the expanded cotyledon stage are primed to a single cotyledon and infested with cotton aphids 16-24 hours before application of the test material by transfer of infested foliage cut from a stock colony. Immediately prior to spray application of the test material, the transfer foliage is removed from the squash plants. The test material is dissolved at 1 mg/ml in 90:10 acetone:alcohol, then diluted in water containing 0.05% Tween 20 (polyethylene (20) sorbitan monolaurate) to give test solution at a concentration of 50 ppm. The plants were sprayed with the test solution using an atomizing sprayer at 17 psi. Both surfaces of the cotyledons are covered until runnoff, and then allowed to dry. Activity of the compound was determined at three days after treatment. Activity was rated as a percent based on the number of aphids present in plants sprayed with solvent only.

[3] = test system: Heliothis virescens; assay: Tobacco Budworm (Heliothis virescens) topical assay
Description: An additional measure of the relative insecticidal activities of the compounds of the invention was generated by using a 1 ug/ul acetone solution of each compound applied at 1 ug/larva of laboratory-reared Heliothis virescens larvae (mean weight of 22 mg). Each compound was applied along the dorsum of each of six larvae. Treated larvae were then held for two days at 21° C., 60% RH in six-well plastic culture plates. Larvae were each supplied with a 1 cm^3 of agar-based lepidoptera diet for sustenance during the two-day post-exposure interval. Percent mortality was determined at the end of a two-day period.

[4] = Heliothis virescens, rate 400 ppm, 96 h

## CCOC(C)/C=C/[C@H]1CCC[C@H](OC2CC[C@H](N(C)C)[C@@H](C)O2)[C@@H](C)C(=O)C2=CC3C(C=CC4C[C@@H](O[C@@H]5O[C@@H](C)[C@H](OC)[C@@H](OC)[C@H]5OC)CC43)C2CC(=O)O1 (stereo partly drawn) [Compound A4, (24-O-thyl) for-rham-I]
[1]; [4]
  mortality at 400 ppm: 100%
[2]
  mortality at 50 ppm: 99%

## CC/C=C/[C@H]1CCC[C@H](OC2CC[C@H](N(C)C)[C@@H](C)O2)[C@@H](C)C(=O)C2=CC3C(C=CC4C[C@@H](O[C@@H]5O[C@@H](C)[C@H](OCC)[C@@H](OCC)[C@H]5OC)CC43)C2CC(=O)O1 (stereo partly drawn) [Compound A3, for-(3′,4′-bis-O-ethylrham)-I]
[3]; in vivo
  Tobacco Budworm Typical (48 h) Mortality (%): 67%

## CCOC(C)CCC1CCCC(OC2CCC(N(C)C)C(C)O2)C(C)C(=O)C2=CC3C4CC(OC5OC(C)C(OC)C(OC)C5OC)CC4CCC3C2CC(=O)O1 (stereo not drawn) [Compound A25]
[3]; rate 1 µg/larva, 48 h
  Tobacco Budworm Typical (48 h) Mortality (%): 83%
[2]
  Cotton Aphid mortality (72 h) Mortality (%): 79%

## CCC=CC1CCCC(OC2CCC(N(C)C)C(C)O2)C(C)C(=O)C2=CC3C4CC(OC5OC(C)C(OC)C(OCC)C5OC)CC4CCC3C2CC(=O)O1 (stereo not drawn) [Compound A22]
[1]; rate 400 ppm
  Tobacco Budworm Feeding (96 h) Mortality (%): 100%
[2]
  Cotton Aphid mortality (72 h) Mortality (%): 99%

## CCCOC(C)C=CC1CCCC(OC2CCC(N(C)C)C(C)O2)C(C)C(=O)C2=CC3C(C=CC4CC(OC5OC(C)C(OC)C(OCCC)C5OC)CC43)C2CC(=O)O1 (stereo not drawn) [Compound A20]
[1]; rate 400 ppm
  Tobacco Budworm Feeding (96 h) Mortality (%): 100%
[2]
  Cotton Aphid mortality (72 h) Mortality (%): 99%

## CCCCCOC1C(OC)C(C)OC(OC2CC3CCC4C5CC(=O)OC(CCCC)CCCC(OC6CCC(N(C)C)C(C)O6)C(C)C(=O)C5=CC4C3C2)C1OC (stereo not drawn) [Compound A18]
[1]; rate 1.56 ppm
  Tobacco Budworm Feeding (96 h) Mortality (%): 20%
[3]; rate 1 µg/larva, 48 h
  Tobacco Budworm Typical (48 h) Mortality (%): 33%
[2]
  Cotton Aphid mortality (72 h) Mortality (%): 91%

## CCOC(C)C=CC1CCCC(OC2CCC(N(C)C)C(C)O2)C(C)C(=O)C2=CC3C(C=CC4CC(OC5OC(C)C(OC)C(OCC)C5OC)CC43)C2CC(=O)O1 (stereo not drawn) [Compound A19]
[1]; rate 400 ppm
  Tobacco Budworm Feeding (96 h) Mortality (%): 100%
[2]
  Cotton Aphid mortality (72 h) Mortality (%): 99%

## CCCC[C@H]1CCC[C@H](O[C@H]2CC[C@H](N(C)C)[C@@H](C)O2)[C@@H](C)C(=O)C2=CC3C4C[C@H](O[C@@H]5O[C@@H](C)[C@H](O)[C@@H](OC)[C@H]5OC)CC4CCC3C2CC(=O)O1 (stereo partly drawn) [Compound A14, 5,6,22,23-tetrahydro for-(4′-O-desmethylrham)-I]
[3]; in vivo
  Tobacco Budworm Typical (48 h) Mortality (%): 83%
[2]
  mortality at 50 ppm: 92%

## CC/C=C/[C@H]1CCC[C@H](OC2CC[C@H](N(C)C)[C@@H](C)O2)[C@@H](C)C(=O)C2=CC3C(C=CC4C[C@@H](O[C@@H]5O[C@@H](C)[C@H](OC)[C@@H](OCCC)[C@H]5OC)CC43)C2CC(=O)O1 (stereo partly drawn) [Compound A6, for-(3′-O-n-propylrham)-I]
[3]; in vivo
  Tobacco Budworm Typical (48 h) Mortality (%): 100%
[2]
  mortality at 50 ppm: 54%

## 5,6,22,23-tetrahydro-for-(3′,4′-methylenedioxyrham)-I [Compound A26]
[3]; in vivo
  Tobacco Budworm Typical (48 h) Mortality (%): 83%

## CC/C=C/[C@H]1CCC[C@H](OC2CC[C@H](N(C)C)[C@@H](C)O2)[C@@H](C)C(=O)C2=CC3C4C[C@H](O[C@@H]5O[C@@H](C)[C@H](OC)[C@@H](OC)[C@H]5OC)CC4C4OC4C3C2CC(=O)O1 (stereo partly drawn) [Compound C1, 5,6-epoxy-for-rham-I]
[1]; [4]
  mortality at 400 ppm: 100%
[2]
  mortality at 50 ppm: 95%

## CC/C=C/[C@H]1CCC[C@H](OC2CC[C@H](N(C)C)[C@@H](C)O2)[C@@H](C)C(=O)C2=CC3C(C=CC4C3C[C@H](O[C@@H]3O[C@@H](C)[C@H](OC)[C@@H](OC)[C@H]3OC)[C@H]4OCC)C2CC(=O)O1 (stereo partly drawn) [Compound A5, (8-O-ethyl)-for-rham-III]
[1]; [4]
  mortality at 400 ppm: 100%
[2]
  mortality at 50 ppm: 53%

## CCC=CC1CCCC(OC2CCC(N(C)CC)C(C)O2)C(C)C(=O)C2=CC3C(C=CC4CC(OC5OC(C)C(OC)C(OC)C5OC)CC43)C2CC(=O)O1 (stereo not drawn) [Compound D1]
[3]; rate 1 µg/larva, 48 h
  Tobacco Budworm Typical (48 h) Mortality (%): 83%

## CCCCOC(C)/C=C/C1CCC[C@H](O[C@H]2CC[C@H](N(C)C)[C@@H](C)O2)[C@@H](C)C(=O)C2=CC3C(C=CC4C[C@@H](O[C@@H]5O[C@@H](C)[C@H](OC)[C@@H](OCCCC)[C@H]5OC)CC43)C2CC(=O)O1 (stereo partly drawn) [Compound A21, (24-O-n-butyl)-for-(3′-O-n-butylrham)-I]
[1]; [4]
  mortality at 400 ppm: 100%
[2]
  mortality at 50 ppm: 59%

## CCCCC1CCCC(OC2CCC(N(C)C)C(C)O2)C(C)C(=O)C2=CC3C4CC(OC5OC(C)C(OC)C(OCC)C5OC)CC4CCC3C2CC(=O)O1 (stereo not drawn) [Compound A15]
[1]; rate 6.25 ppm
  Tobacco Budworm Feeding (96 h) Mortality (%): 100%
[2]
  Cotton Aphid mortality (72 h) Mortality (%): 100%

## COC1C(C)OC(OC2CC3CCC4C5CC(=O)OC(CCC(C)O)CCCC(OC6CCC(N(C)C)C(C)O6)C(C)C(=O)C5=CC4C3C2)C(OC)C1OC (stereo not drawn) [Compound B17]
[3]; rate 1 µg/larva, 48 h
  Tobacco Budworm Typical (48 h) Mortality (%): 17%
[2]
  Cotton Aphid mortality (72 h) Mortality (%): 11%

## CCC=CC1CCCC(OC2CCC(N(C)C(C)=O)C(C)O2)C(C)C(=O)C2=CC3C(C=CC4CC(OC5OC(C)C(OC)C(OC)C5OC)CC43)C2CC(=O)O1 (stereo not drawn) [Compound D5]
[1]; rate 400 ppm
  Tobacco Budworm Feeding (96 h) Mortality (%): 100%
[2]
  Cotton Aphid mortality (72 h) Mortality (%): 92%

## CCC=CC1CCCC(OC2CCC(N(C)C)C(C)O2)C(C)C(=O)C2=CC3C4CC(OC5OC(C)C(OC)C(OCCCC)C5OC)CC4CCC3C2CC(=O)O1 (stereo not drawn) [Compound A24]
[1]; rate 400 ppm
  Tobacco Budworm Feeding (96 h) Mortality (%): 100%
[2]
  Cotton Aphid mortality (72 h) Mortality (%): 99%

## CC/C=C/C1CCC[C@H](O[C@H]2CC[C@H](N(C)C=O)[C@@H](C)O2)[C@@H](C)C(=O)C2=CC3C(C=CC4C[C@@H](O[C@@H]5O[C@@H](C)[C@H](OC)[C@@H](OC)[C@H]5OC)CC43)C2CC(=O)O1 (stereo partly drawn) [Compound D4, (N-formyl)-for-rham-I]
[1]; [4]
  mortality at 400 ppm: 100%
[2]
  mortality at 50 ppm: 92%

## CCC=CC1CCCC(OC2CCC(N(C)C)C(C)O2)C(C)C(=O)C2=CC3C4CC(OC5OC(C)C(OC)C(OCCC)C5OC)CC4CCC3C2CC(=O)O1 (stereo not drawn) [Compound A23]
[1]; rate 400 ppm
  Tobacco Budworm Feeding (96 h) Mortality (%): 100%
[2]
  Cotton Aphid mortality (72 h) Mortality (%): 100%

## CC=CC(CC(=O)OC)C1CCCC(OC2CCC(N(C)C)C(C)O2)C(C)C(=O)C2=CC3C(C=CC4CC(OC5OC(C)C(OC)C(OCC)C5OC)CC43)C2CC(=O)O1 (stereo not drawn) [Compound A27]
[3]; rate 1 µg/larva, 48 h
  Tobacco Budworm Typical (48 h) Mortality (%): 100%
[2]
  Cotton Aphid mortality (72 h) Mortality (%): 33%

## CC=CC(CC(=O)N(C)C)C1CCCC(OC2CCC(N(C)C)C(C)O2)C(C)C(=O)C2=CC3C(C=CC4CC(OC5OC(C)C(OC)C(OCC)C5OC)CC43)C2CC(=O)O1 (stereo not drawn) [Compound A28]
[1]; rate 400 ppm
  Tobacco Budworm Feeding (96 h) Mortality (%): 100%
[2]
  Cotton Aphid mortality (72 h) Mortality (%): 48%

## CCCCC1CCCC(OC2CCC(N(C)C)C(C)O2)C(C)C(=O)C2=CC3C4CC(OC5OC(C)C(OCC)C(OCC)C5OC)CC4CCC3C2CC(=O)O1 (stereo not drawn) [Compound B2, 5,6,22,23-tetrahydro-for-(3′,4′-bis-O-ethylrham)-I]
[3]; rate 1 µg/larva, 48 h
  Tobacco Budworm Typical (48 h) Mortality (%): 83%
[2]
  Cotton Aphid mortality (72 h) Mortality (%): 97%

## CC/C=C/[C@H]1CCC[C@H](OC2CC[C@H](N(C)C)[C@@H](C)O2)[C@@H](C)C(=O)C2=CC3C(C=CC4C[C@@H](O[C@@H]5O[C@@H](C)[C@H](OC)[C@@H](OC)[C@H]5OCC)CC43)C2CC(=O)O1 (stereo partly drawn) [Compound A1, for-(2′-O-ethylrham)-I]
[1]; Heliothis virescens, rate 1.56 ppm, 96 h
  mortality at 1.56 ppm: 100%
[2]
  mortality at 50 ppm: 87%

## CCCCC1CCCC(OC2CCC(N(C)C)C(C)O2)C(C)C(=O)C2=CC3C4CC(OC5OC(C)C(OC)C(OCCC)C5OC)CC4CCC3C2CC(=O)O1 (stereo not drawn) [Compound A16]
[1]; rate 6.25 ppm
  Tobacco Budworm Feeding (96 h) Mortality (%): 100%
[2]
  Cotton Aphid mortality (72 h) Mortality (%): 100%
